Measurements: paper PMC8844822, “SARM1 is a multi-functional NAD(P)ase with prominent base exchange activity, all regulated bymultiple physiologically relevant NAD metabolites” (iScience, 2022)

Key:
Assay type in all cases: biochemical
[1] = biological target: T1, hSARM1 SAM-TIR (Homo sapiens, UniProt Q6SZW1); assay: Base exchange reactions at neutral pH (HPLC)
T1 construct: made in house
T1 sequence (Q6SZW1 409-724): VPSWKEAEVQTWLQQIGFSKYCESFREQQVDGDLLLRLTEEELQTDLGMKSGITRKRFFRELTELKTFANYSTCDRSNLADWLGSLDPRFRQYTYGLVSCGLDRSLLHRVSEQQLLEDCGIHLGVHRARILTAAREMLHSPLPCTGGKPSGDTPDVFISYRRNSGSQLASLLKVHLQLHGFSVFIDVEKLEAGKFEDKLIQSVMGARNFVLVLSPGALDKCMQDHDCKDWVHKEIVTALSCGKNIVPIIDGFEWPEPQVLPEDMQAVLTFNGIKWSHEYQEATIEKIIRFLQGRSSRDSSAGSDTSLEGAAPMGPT
Procedure: (§1) Multiple time stops from individual assays as above were analyzed for linearity, then extents of hydrolysis (white bars), cyclization (red bars), or base exchange (black bars) were calculated from each corresponding product as shown in Figure 1B and STAR methods. […] See also Figures S3–S5, and Table S1
(§2) Rates were calculated as follows.

[2] = biological target: T2, hSARM1 full length (Homo sapiens, UniProt Q6SZW1); assay: Base exchange reactions at neutral pH (HPLC)
T2 construct: Human recombinant SARM1 full length proteins (wild-type and E642A mutant); made in house
T2 sequence (Q6SZW1 28-724): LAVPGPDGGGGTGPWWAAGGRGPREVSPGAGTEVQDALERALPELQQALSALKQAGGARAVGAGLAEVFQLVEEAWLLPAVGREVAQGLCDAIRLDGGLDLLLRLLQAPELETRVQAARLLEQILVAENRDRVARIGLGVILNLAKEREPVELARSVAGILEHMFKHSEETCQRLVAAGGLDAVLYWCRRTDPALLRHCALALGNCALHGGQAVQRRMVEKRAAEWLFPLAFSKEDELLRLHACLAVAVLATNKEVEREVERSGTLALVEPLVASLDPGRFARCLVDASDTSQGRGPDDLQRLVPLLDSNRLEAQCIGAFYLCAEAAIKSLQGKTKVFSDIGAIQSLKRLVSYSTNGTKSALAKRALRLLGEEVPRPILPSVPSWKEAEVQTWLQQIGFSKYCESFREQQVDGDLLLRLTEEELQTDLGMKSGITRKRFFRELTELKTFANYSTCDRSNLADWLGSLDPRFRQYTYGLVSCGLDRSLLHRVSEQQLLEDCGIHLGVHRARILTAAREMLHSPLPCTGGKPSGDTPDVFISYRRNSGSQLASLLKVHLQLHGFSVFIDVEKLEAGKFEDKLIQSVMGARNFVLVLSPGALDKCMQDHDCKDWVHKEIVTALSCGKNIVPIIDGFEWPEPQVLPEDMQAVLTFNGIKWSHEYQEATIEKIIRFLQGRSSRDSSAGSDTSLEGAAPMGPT
Procedure: as §1
(§3) hSARM1 species were routinely assayed by the NAD/NADH-Glo^TM Assay (Promega) while both Aplysia cyclase and CD38 were assayed by fluorometry using ϵNAD ([Orsomando et al., 2000]). […] Other reagents used in addition to, or in place of those above are detailed in text or in figure legends, for example metal ions, free bases, dinucleotide analogues, mononucleotides, and ribosides. Assays were all carried out at 25°C except for temperature studies. Reactions were stopped by HClO4/K2CO3 and analysed by C18-HPLC as reported ([Mori et al., 2014]). Only the acid labile NADH and NADPH were treated with 1 N NaOH and neutralized using 1:1 vol of 1.73 M KH2CO3 while the highly hydrophobic metabolites vacor, VAD, VMN and VR, were analysed by a modified C18-HPLC method ([Buonvicino et al., 2018]). Reaction products were quantified from peak areas (see Figure 2A) based on coelution with standards (except for cyclic products from NAD analogues that were not available and were attributed based on UV-spectra and retention times as predicted). Rates were calculated as follows. Hydrolysis and cyclization were measured from product generation from the respective individual dinucleotide substrate used, e.g., free and cyclic ADP-ribosyl moieties from NAD (Figure 1B). A basal value for hydrolysis/cyclization was taken as sum of these latter two products. In addition to that value, base exchange or transglycosidation was calculated from the expected dinucleotide analog formed in the presence of the corresponding free base, e.g., AcPyrAD from AcPyr and NAD.

[3] = biological target: T3, hCD38 (Homo sapiens, UniProt P28907); assay: Base exchange reactions at neutral pH (HPLC)
T3 construct: a soluble fragment Val43-Ile300 with 6x-His tag at C terminus; 6xHis (C); purchased R&D Systems
T3 sequence (P28907 43-300): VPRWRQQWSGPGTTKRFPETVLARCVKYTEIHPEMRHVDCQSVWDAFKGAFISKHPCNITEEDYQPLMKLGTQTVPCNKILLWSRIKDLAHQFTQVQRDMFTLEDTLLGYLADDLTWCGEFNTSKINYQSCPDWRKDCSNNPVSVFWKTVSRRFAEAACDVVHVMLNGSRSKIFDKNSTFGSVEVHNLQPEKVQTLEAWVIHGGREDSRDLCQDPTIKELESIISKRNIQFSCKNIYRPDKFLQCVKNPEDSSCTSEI
Procedure: as §1, §3

[4] = biological target: T4, Aplysia californica ADP ribosyl cyclase (Aplysia californica, UniProt P29241); assay: Base exchange reactions at neutral pH (HPLC); design: purchased Merck A8950
T4 sequence (P29241 25-282): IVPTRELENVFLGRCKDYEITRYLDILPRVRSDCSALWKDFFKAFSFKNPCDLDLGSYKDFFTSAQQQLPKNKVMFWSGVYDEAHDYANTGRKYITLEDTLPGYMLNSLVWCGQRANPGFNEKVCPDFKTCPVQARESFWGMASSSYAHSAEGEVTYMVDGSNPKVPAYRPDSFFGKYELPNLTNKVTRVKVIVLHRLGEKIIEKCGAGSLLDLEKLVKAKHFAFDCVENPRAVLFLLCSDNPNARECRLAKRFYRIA
Procedure: as §1, §2

[5] = biological target: T1, hSARM1 SAM-TIR; assay: NADase inhibition by pyridine ribosides, IC50 and inhibition kinetics (HPLC); details: for IC50: NAD […], preliminary; for Ki: variable NAD 15-600 μM
Procedure: as §3
(§4) Inhibition by ribosides was assayed by HPLC initially at fixed 200 μM of each NR, NaR or VR and optimized NAD concentrations for the different enzymes (see Figure 6 legend).

[6] = biological target: T2, hSARM1 full length; assay: NADase inhibition by pyridine ribosides (HPLC); details: for IC50: hSARM1 full length, saturating NAD ([…]), preliminary; for NADase inhibition (in words): hSARM1, riboside fixed at 200 μM, NAD […]
Procedure: as §3, with “NAD. The measured level of overall formed products matched in all cases the dinucleotide substrate consumed and the corresponding pyridine base released, according to the reaction scheme (Figure 1B). Furthermore, enzyme amounts forming 1 μmol/min of overall products above were referred to as single units (U) of activity and initial rates were always considered, for example until a maximum of 20% of the original substrate had been consumed and all products were still accumulating at a nearly linear rate.” for “NAD.”
as §4

[7] = NAD […] alone or + AcPyr 2 mM / Vacor 0.5 mM / Na 2 mM
[8] = NADP […] alone or + AcPyr 2 mM / Vacor 0.5 mM / Na 2 mM
[9] = hSARM1 full length +NMN 0.2 mM, NAD […]
[10] = hSARM1 full length +NMN 0.2 mM, NADP […]
[11] = hSARM1 full length +VMN 0.05 mM, NAD […]
[12] = hSARM1 full length +VMN 0.05 mM, NADP […]

What does the source list for `O=C(O)c1cccnc1` [Na, nicotinic acid]?
rate [1, 7]: 315.2 ±69.6 mU/mg; rate [1, 8]: 242.0 ±37.3 mU/mg; base exchange, share of products [2, 9]: 1.58%; cyclization, share of products [2, 9]: 8.35%; hydrolysis, share of products [2, 9]: 90.07%; rate ([2]; hSARM1 full length +NMN 0.2 mM, NAD […] alone or + free base): 201.5 ±27.9 mU/mg; rate (relative fold) ([2]; hSARM1 full length +NMN 0.2 mM, NAD […], relative to NAD alone without trigger): 9.23 ±1.28 fold; base exchange, share of products [2, 10]: 1.48%; cyclization, share of products [2, 10]: ~ 0.05%; hydrolysis, share of products [2, 10]: 98.47%; rate ([2]; hSARM1 full length +NMN 0.2 mM, NADP […] alone or + free base): 131.9 ±10.5 mU/mg; rate (relative fold) ([2]; hSARM1 full length +NMN 0.2 mM, NADP […], relative to NADP alone without trigger): 8.98 ±0.711 fold; base exchange, share of products [2, 11]: 1.68%; cyclization, share of products [2, 11]: 6.44%; hydrolysis, share of products [2, 11]: 91.88%; rate ([2]; hSARM1 full length +VMN 0.05 mM, NAD […] alone or + free base): 199.0 ±17.6 mU/mg; rate (relative fold) ([2]; hSARM1 full length +VMN 0.05 mM, NAD […], relative to NAD alone without trigger): 9.12 ±0.805 fold; base exchange, share of products [2, 12]: 1.28%; cyclization, share of products [2, 12]: 0.69%; hydrolysis, share of products [2, 12]: 98.03%; rate ([2]; hSARM1 full length +VMN 0.05 mM, NADP […] alone or + free base): 147.6 ±4.76 mU/mg; rate (relative fold) ([2]; hSARM1 full length +VMN 0.05 mM, NADP […], relative to NADP alone without trigger): 10.04 ±0.324 fold; rate ([2]; hSARM1 full length, no trigger, NAD […] alone or + AcPyr 2 mM / Vacor 0.5 mM / Na 2 mM, pH 7.5): 23.3 ±0.83 mU/mg; rate ([2]; hSARM1 full length, no trigger, NADP […] alone or + AcPyr 2 mM / Vacor 0.5 mM / Na 2 mM, pH 7.5): 17.3 ±0.54 mU/mg; base exchange products VAD(P) or NaAD(P), share of total products ([2]; hSARM1 full length, NAD or NADP 250 μM, vacor 0.5 mM, Na 2 mM): 2%–3%; rate [3, 7]: 7934 ±1182 mU/mg; rate [3, 8]: 3189 ±622 mU/mg; rate [4, 7]: 14595 ±3147 mU/mg; rate [4, 8]: 9872 ±1846 mU/mg

Which inhibition type [5] does the source give for `O=C([O-])c1ccc[n+]([C@@H]2O[C@H](CO)[C@@H](O)[C@H]2O)c1` [NaR, nicotinic acid riboside] here?
Its inhibition type is “mixed-type inhibition”.

And the IC50 [5]?
The IC50 was 36 µM.

What about the Ki [5] of the same molecule?
Its Ki is 15 µM.

What about the IC50 [6] of the same molecule?
The IC50 was 87 µM.

Which inhibition type [5] does the source give for `O=C(NCc1ccc[n+]([C@@H]2O[C@H](CO)[C@@H](O)[C@H]2O)c1)Nc1ccc([N+](=O)[O-])cc1` [VR, vacor riboside] here?
The inhibition type was “mixed-type inhibition”.

What about the IC50 [5] of the same molecule?
Its IC50 is 61 µM.

What about the Ki [5] of the same molecule?
Its Ki is 25.9 µM.

What about the “NADase inhibition (in words)” value [6] of the same molecule?
The value was “strongly inhibited”.

And the IC50 [6]?
Its IC50 is 154 µM.

With `NC(=O)c1ccc[n+]([C@@H]2O[C@H](CO)[C@@H](O)[C@H]2O)c1` [NR, nicotinamide riboside] as the molecule, how does the “NADase inhibition (in words)” value [6] read?
Its value is “inactive”.
